By zone of inhibition is commonly meant the size of the clear area around the sample on an inoculated plate. A lower zone of inhibition goes with a weaker effect on the plate.

Five molecules from article PMC9077138, “An investigation on 3-acetyl-7-methoxy-coumarin Schiff bases and their Ru(II) metallates with potent antiproliferative activity and enhanced LDH and NO release” (RSC Advances, 2018) can be followed below.

One experiment addresses T1, BSA (Bos taurus, UniProt P02769).
T1 construct: purchased HiMedia (Mumbai, India)
Kind of experiment: BSA tryptophan fluorescence quenching. Format: binding, bovine. An excerpt:
(§1) The obtained results confirmed the interaction of the ligands and complexes with serum albumins. The absorption spectra of the serum albumins in the absence and presence of ligands H2L^1–4 and the complexes 1–4 are given in Fig. S29 in the ESI. ^† On adding ligands and complexes 1–4 to albumins, the absorbance intensity of serum albumins was decreased with a red shift of 2 nm. The observed changes indicated a static quenching mechanism of serum albumins by the ligands and complexes (1–4). To obtain a quantitative insight into the quenching progression, the Stern–Volmer quenching constant (KSV) and the quenching constant (Kq) were calculated from the Stern–Volmer equation using the Io/ICorrversus [Q] plot (Table 4).[53] The observed linearity in the plots (Fig. 13) indicated the ability of the compounds to quench the emission intensity of serum albumins and the order of quenching constant of the compounds is complex 3 > complex 2 > complex 1 > complex 4 > H2L^3 > H2L^2 > H2L^1 > H2L^4.
(§2) Furthermore, the equilibrium binding constant and number of binding sites were evaluated by using the Scatchard equation. The Kbin values were derived from the graph between log[(Fo − F)/F] and log[Q] From the results, we confirmed that the Ru(II) complexes having a large hydrophobic area can interact more efficiently than the ligands with serum albumins via a static pathway. The higher binding affinity of the complexes over the ligands may be due to the efficient binding of protein moiety with the complexed metal ions. Here, the binding affinities of the complexes with serum albumins followed the same order as those with DNA binding studies, complex 3 > complex 2 > complex 1 > complex 4 > H2L^3 > H2L^2 > H2L^1 > H2L^4. Variation in the binding affinity of the compounds with serum albumins depends on the electron-donating ability of the ligand, i.e. the substitution on the N-terminal nitrogen atom. The binding capability of the compounds to serum albumins increased with the increase in electron-donating ability of the substituent on the terminal nitrogen of the coordinated thiosemicarbazone ligand. The obtained quenching constant and binding constant values of these new cyclometallated ruthenium(II) complexes agree well with those reported for other ruthenium(II) complexes.[31,44,54–56] […]
(§3) Serum albumin binding study
(§4) Bovine Serum Albumin (BSA) and human serum albumin were purchased from Hi Media, The protein binding study was performed by tryptophan fluorescence quenching experiments using bovine serum albumin (BSA, 10 µM) or human serum albumin (HSA, 10 µM) as the substrate in phosphate buffer (pH= 7.2). Quenching of the emission intensity of tryptophan residues of BSA at 346 nm (excitation wavelength at 280 nm)/ HSA at 345 nm (excitation wavelength at 290 nm) was monitored using ligands and complexes as quenchers with increasing concentration (10-100µM). Synchronous fluorescence spectra of BSA or HSA with various concentrations of the complexes were obtained from 300 to 400 nm when ∆λ = 60 nm and from 290 to 500 nm when ∆λ = 15 nm. For synchronous fluorescence spectra, the same concentrations of serum albumins and the compounds were also used and the spectra were measured at two different Δλ values (difference between the excitation and emission wavelengths of BSA), such as 15 and 60 nm. Fluorescence and synchronous measurements were performed using a 1 cm quartz cell on a JASCO FP 6600 spectrofluorimeter.
(§5) The quenching data can be analyzed according to the Stern-Volmer equation, […]
(§6) Io/Icorr =K SV[Q]+1 Eq (S2) where Iₒ is the emission intensity in the absence of compound, Icorr is the corrected emission intensity in the presence of compound, KSV is the quenching constant and [Q] is the concentration of the compound.
(§7) In order to correct the inner filter effect, the following equation used Icorr = Iobs*10 (Aexc+Aem)/2 where Icorr is the corrected fluorescence value, Iobs the measured fluorescence value, Aexc is […]

A short description of experiment [1]: Total antioxidant capacity, phosphomolybdate method. Here is the method:
It has been reported that free radical species such as reactive oxygen species (ROS), are involved in the pathogenesis of various diseases through effects on DNA directly and by acting as a tumour promoter.[59,60] The DPPH free radical scavenging activity of the ligands and complexes were studied and quantitatively antioxidant properties were determined by using phosphomolybdate method. We knew that the inhibitory effects of the tested compounds on DPPH radical are concentration dependent and the suppression ratio increases with increasing sample concentrations (Fig. S36 ^†). […] In the phosphomolybdenum assay, the antioxidant activity is expressed as the number of equivalents of ascorbic acid (Table 6). The total antioxidant activity of the compounds is in the following order complex 3 > complex 2 > complex 1 > complex 4 > H2L^3 > H2L^2 > H2L^1 > H2L^4 > ascorbic acid > [RuHClCO(PPh3)3]. The results concluded that the metal complexes are better antioxidants than their parent ligands which may be due to the chelation of the ligands to metal ion.[35] The radical scavenging ability of the new complexes is greater than that of few other reported ruthenium complexes, containing Schiff base ligands.[9]
The DPPH radical scavenging activity of the compounds have been carried out according to the reported method.[74] In this study, various concentrations of the experimental standard ascorbic acid, [RuHCl(CO)(PPh3)3], ligands (20–100 μM) and complexes (2–10 μM) in methanol were taken. Total antioxidant activity of the compounds was determined by the phosphomolybdate method.[75]

Another experiment addresses T2, HSA (Homo sapiens, UniProt P02768).
T2 construct: purchased HiMedia (Mumbai, India)
Kind of experiment: HSA tryptophan fluorescence quenching. In kind it is binding. The settings on record: for Kd: read-out: Binding constant Kbin (converted).
Excerpt: as §1, §2, §3, §4, §5, §6, §7

In the next experiment the test system is Trichophyton rubrum. As to the kind of experiment: In vitro antifungal assay (zone of inhibition, MIC). Format: cell-based. Here is the method: (§8) The free ligands and their cyclometallated ruthenium(II) carbonyl complexes were screened for their in vitro antimicrobial activity against certain pathogenic bacterial and fungal species at three different concentrations using disc diffusion method.
(§9) Antimicrobial activities of [RuHClCO(PPh3)3], ligands H2L^1–4 and new organometallic Ru(II) complexes (1–4) were evaluated by agar well diffusion method[76] as reported, by taking Staphylococcus aureus, Streptococcus pneumonie, Pseudomonas aeruginosa, Salmonella paratyphi and fungus such as Candida albicans, Trichophyton rubrum, Aspergillus niger, Aspergillus fumigatus and Candida tropicalis. The above said all test organisms were obtained from the MTCC, Chandigarh, India and Microbiological laboratory, Coimbatore, Tamil Nadu, India. The antimicrobial activity of the test compounds was checked with various concentrations (25 μg ml^−1, 50 μg ml^−1 and 100 μg ml^−1) against all the test pathogens. Gentamicin and ketoconazole were used as positive controls to study the antibacterial and antifungal activities respectively. Each experiment was performed in triplicate and the results are represented as average zone of inhibition and minimum inhibitory concentration of all the test pathogens.

The next experiment deals with Candida tropicalis. The experiment is described as above. In kind it is cell-based. Here is the method:
as §8, §9

In the next experiment the test system is Aspergillus fumigatus. Described as above. Format: cell-based. Here is the method:
as §8, §9

The next experiment deals with Aspergillus niger. The experiment is described as above. In kind it is cell-based. Here is the method:
as §8, §9

T2 sequence (P02768 25-609): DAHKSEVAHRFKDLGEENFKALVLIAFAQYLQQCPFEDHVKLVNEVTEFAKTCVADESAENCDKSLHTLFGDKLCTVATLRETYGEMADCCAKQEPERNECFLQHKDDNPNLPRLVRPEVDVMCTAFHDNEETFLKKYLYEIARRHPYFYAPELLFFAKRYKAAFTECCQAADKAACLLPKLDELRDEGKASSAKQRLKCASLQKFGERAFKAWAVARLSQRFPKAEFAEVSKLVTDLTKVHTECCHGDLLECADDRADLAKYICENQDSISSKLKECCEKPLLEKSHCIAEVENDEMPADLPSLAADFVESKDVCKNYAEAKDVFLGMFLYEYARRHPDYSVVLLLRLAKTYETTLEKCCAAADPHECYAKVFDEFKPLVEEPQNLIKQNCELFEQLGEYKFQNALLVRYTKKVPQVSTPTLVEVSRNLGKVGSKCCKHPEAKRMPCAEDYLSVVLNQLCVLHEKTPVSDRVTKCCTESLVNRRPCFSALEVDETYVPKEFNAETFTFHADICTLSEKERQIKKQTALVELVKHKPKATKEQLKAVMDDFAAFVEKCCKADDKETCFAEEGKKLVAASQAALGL
T1 sequence (P02769 25-607): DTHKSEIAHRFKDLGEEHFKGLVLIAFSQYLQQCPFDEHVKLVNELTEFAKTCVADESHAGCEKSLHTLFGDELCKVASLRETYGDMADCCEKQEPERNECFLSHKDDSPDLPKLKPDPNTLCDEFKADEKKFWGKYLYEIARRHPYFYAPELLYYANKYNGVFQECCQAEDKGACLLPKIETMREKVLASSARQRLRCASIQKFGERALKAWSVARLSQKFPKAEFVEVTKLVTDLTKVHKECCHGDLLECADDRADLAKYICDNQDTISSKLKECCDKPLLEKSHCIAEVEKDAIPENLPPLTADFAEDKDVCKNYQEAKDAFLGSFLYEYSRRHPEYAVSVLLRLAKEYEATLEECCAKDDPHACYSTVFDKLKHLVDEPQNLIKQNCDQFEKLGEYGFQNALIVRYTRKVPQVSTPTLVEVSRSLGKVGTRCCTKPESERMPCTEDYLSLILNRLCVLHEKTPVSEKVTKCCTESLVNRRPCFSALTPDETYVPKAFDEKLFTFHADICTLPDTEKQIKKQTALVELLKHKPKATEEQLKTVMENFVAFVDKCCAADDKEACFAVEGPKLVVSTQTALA

For `COc1ccc2[c]3c(c(=O)oc2c1)C(C)=[N+]1N=C(N)[S][Ru-4]31([C]#[O+])([P+](c1ccccc1)(c1ccccc1)c1ccccc1)[P+](c1ccccc1)(c1ccccc1)c1ccccc1` [Complex 1, [Ru(7MAC-tsc)(CO)(PPh3)2]], the Quenching constant kq is 1.674 ± 0.040 × 10^12 M^−1 s^−1 at BSA (BSA) and 0.741 ± 0.010 × 10^12 M^−1 s^−1 on HSA (HSA). For the same molecule, the “Stern–Volmer KSV” value on BSA (BSA) is given as 1.674 ± 0.040 × 10^4 M^−1; at HSA (HSA) it was 0.741 ± 0.010 × 10^4 M^−1. Further, the “number of binding sites n” value on BSA (BSA) came out at 1.0408 ± 0.030; on HSA (HSA), 1.1329 ± 0.018. For the same molecule, the “Binding constant Kbin” value at BSA (BSA, Scatchard equation) is listed as 2.251 ± 0.029 × 10^4 M^−1; at HSA (HSA, Scatchard equation), 2.273 ± 0.017 × 10^4 M^−1. The “quenching of BSA fluorescence intensity at 346 nm” value at BSA (compounds 10–100 μM, BSA 10 μM) was 62.61%. The Total antioxidant capacity in experiment [1] is 54.13 ± 0.28 μg ascorbic acid equivalents/ml. The “decrease of HSA fluorescence intensity” value on HSA (compounds 10–100 μM, HSA 10 μM) is listed as 41.01%. Also, the “Minimum inhibitory concentration (MIC); head: IC50 VALUES” with Trichophyton rubrum is 15.29 ± 0.29 µM; with Candida tropicalis it was 15.15 ± 0.11 µM; with Aspergillus fumigatus, 15.56 ± 0.11 µM; in the experiment with Aspergillus niger, 15.89 ± 0.18 µM. Also, the Zone of inhibition in the experiment on Trichophyton rubrum (50 µg/ml) turned out to be 11.57±0.22 mm; in the experiment with Trichophyton rubrum (100 µg/ml), 17.56±0.13 mm; with Candida tropicalis (50 µg/ml) it was 12.82±0.34 mm; with Candida tropicalis (100 µg/ml), 18.51±0.54 mm; in the experiment on Aspergillus fumigatus (50 µg/ml), 12.31±0.62 mm; in the experiment on Aspergillus fumigatus (100 µg/ml), 19.64±0.65 mm. For the same molecule, the results for the Zone of inhibition in the experiment on Aspergillus niger (50 µg/ml) and in the experiment with Aspergillus niger (100 µg/ml) were 11.74±0.26 mm and 17.52±0.41 mm, respectively.

Turning to `COc1ccc2cc(C(C)=NNC(N)=S)c(=O)oc2c1` [H2L^1, ((1E)-1-(1-(7-methoxy-2-oxo-2H-chromen-3-yl)ethylidene)thiosemicarbazone)], the Kd was 507 µM at BSA and 477 µM at HSA (HSA, Scatchard equation). Moreover, the zone of inhibition at 50 µg/mL in the experiment on Trichophyton rubrum came out at 13.2 ± 0.16 mm; in the experiment with Candida tropicalis it was 11.93 ± 0.01 mm; in the experiment with Aspergillus fumigatus, 11.2 ± 0.73 mm; in the experiment with Aspergillus niger, 13.1 ± 0.33 mm. The zone of inhibition at 100 µg/mL was found to be 17.3 ± 0.51 mm with Trichophyton rubrum, 17.4 ± 0.51 mm in the experiment with Candida tropicalis, 17.4 ± 0.22 mm with Aspergillus fumigatus and 17.41 ± 0.14 mm in the experiment on Aspergillus niger.

On to `CNC(=S)NN=C(C)c1cc2ccc(OC)cc2oc1=O` [H2L^2, ((1E)-1-(1-(7-methoxy-2-oxo-2H-chromen-3-yl)ethylidene) 4(N)-methylthiosemicarbazone)], for which the Kd at BSA is 333 µM; at HSA (HSA, Scatchard equation), 392 µM. Besides, the zone of inhibition at 50 µg/mL with Trichophyton rubrum came out at 11.3 ± 0.17 mm; in the experiment with Candida tropicalis, 11.5 ± 0.75 mm; in the experiment on Aspergillus fumigatus, 11.8 ± 0.41 mm; in the experiment with Aspergillus niger, 12.4 ± 0.33 mm. Moreover, the zone of inhibition at 100 µg/mL in the experiment with Trichophyton rubrum was 17.4 ± 0.51 mm; with Candida tropicalis, 17.1 ± 0.46 mm; with Aspergillus fumigatus, 18.3 ± 0.22 mm; in the experiment with Aspergillus niger, 16.6 ± 0.21 mm.

As for `CCNC(=S)NN=C(C)c1cc2ccc(OC)cc2oc1=O` [H2L^3, ((1E)-1-(1-(7-methoxy-2-oxo-2H-chromen-3-yl)ethylidene) 4(N)-ethylthiosemicarbazone)], the Kd at BSA was 70.9 µM; at HSA (HSA, Scatchard equation) it was 382 µM. Also, the zone of inhibition at 50 µg/mL in the experiment on Trichophyton rubrum is 13.56 ± 0.05 mm; with Candida tropicalis, 12.3 ± 0.51 mm; with Aspergillus fumigatus, 12.2 ± 0.51 mm; in the experiment on Aspergillus niger it was 12.6 ± 0.31 mm. Also, the zone of inhibition at 100 µg/mL in the experiment on Trichophyton rubrum was 19.1 ± 0.21 mm; in the experiment with Candida tropicalis it was 17.2 ± 0.51 mm; in the experiment with Aspergillus fumigatus it was 18.2 ± 0.24 mm; in the experiment with Aspergillus niger, 17.62 ± 0.12 mm.

Regarding `COc1ccc2cc(/C(C)=N\NC(=S)Nc3ccccc3)c(=O)oc2c1` [H2L^4, ((1E)-1-(1-(7-methoxy-2-oxo-2H-chromen-3-yl)ethylidene) 4(N)-phenylthiosemicarbazone)], the Kd on BSA is 900 µM; on HSA (HSA, Scatchard equation), 858 µM. Also, the zone of inhibition at 50 µg/mL in the experiment on Trichophyton rubrum was 12.4 ± 0.32 mm; in the experiment with Candida tropicalis it was 12.2 ± 0.23 mm; in the experiment on Aspergillus fumigatus, 11.3 ± 0.33 mm; in the experiment with Aspergillus niger, 12.5 ± 0.83 mm. Besides, the zone of inhibition at 100 µg/mL turned out to be 16.4 ± 0.66 mm with Trichophyton rubrum, 19.2 ± 0.32 mm in the experiment on Candida tropicalis, 18.22 ± 0.14 mm with Aspergillus fumigatus and 17.3 ± 0.21 mm in the experiment with Aspergillus niger.
